Assay results from ChEMBL document CHEMBL1817568, “Novel hybrids of fluconazole and furanones: design, synthesis and antifungal activity” (2011).
Values after ≈ are worked out from the molar mass of the structure shown. Active and inactive are the calls of the source. No cut-off for these calls is given here.

Assays:
Pichia kudriavzevii [1] = assay: Antifungal activity against Candida krusei ATCC 6258 at 4 ug/ml by broth dilution method; type: functional, organism-based
Aspergillus niger [2] = assay: Antifungal activity against Aspergillus niger ATCC 16404 at 4 ug/ml by broth dilution method; type: functional, organism-based
Aspergillus fumigatus [3] = assay: Antifungal activity against Aspergillus fumigatus ATCC 46645 at 4 ug/ml by broth dilution method; type: functional, organism-based
Fusarium proliferatum [4] = assay: Antifungal activity against Fusarium proliferatum ATCC 10052 at 4 ug/ml by broth dilution method; type: functional, organism-based
Nakaseomyces glabratus [5] = assay: Antifungal activity against Candida glabrata ATCC 90030 at 4 ug/ml by broth dilution method; type: functional, organism-based
Cryptococcus neoformans [6] = assay: Antifungal activity against Cryptococcus neoformans ATCC 34664 at 4 ug/ml by broth dilution method; type: functional, organism-based
Candida albicans [7] = assay: Antifungal activity against Candida albicans ATCC 24433 at 4 ug/ml by broth dilution method; type: functional, organism-based
Candida tropicalis [8] = assay: Antifungal activity against Candida tropicalis ATCC 750 at 4 ug/ml by broth dilution method; type: functional, organism-based
Aspergillus niger [9] = assay: Antifungal activity against Aspergillus niger ATCC 16404 at 8 ug/ml by broth dilution method; type: functional, organism-based
Nakaseomyces glabratus [10] = assay: Antifungal activity against Candida glabrata ATCC 90030 by broth dilution method; type: functional
Candida tropicalis [11] = assay: Antifungal activity against Candida tropicalis ATCC 750 by broth dilution method; type: functional
Aspergillus fumigatus [12] = assay: Antifungal activity against Aspergillus fumigatus ATCC 46645 at 8 ug/ml by broth dilution method; type: functional, organism-based
Cryptococcus neoformans [13] = assay: Antifungal activity against Cryptococcus neoformans ATCC 34664 by broth dilution method; type: functional
Pichia kudriavzevii [14] = assay: Antifungal activity against Candida krusei ATCC 6258 at 16 ug/ml by broth dilution method; type: functional, organism-based
Candida albicans [15] = assay: Antifungal activity against Candida albicans ATCC 24433 by broth dilution method; type: functional
Fusarium proliferatum [16] = assay: Antifungal activity against Fusarium proliferatum ATCC 10052 at 8 ug/ml by broth dilution method; type: functional, organism-based
Fusarium proliferatum [17] = assay: Antifungal activity against Fusarium proliferatum ATCC 10052 at 128 ug/ml by broth dilution method; type: functional, organism-based
Aspergillus fumigatus [18] = assay: Antifungal activity against Aspergillus fumigatus ATCC 46645 at 128 ug/ml by broth dilution method; type: functional, organism-based
Pichia kudriavzevii [19] = assay: Antifungal activity against Candida krusei ATCC 6258 at 128 ug/ml by broth dilution method; type: functional, organism-based
Aspergillus niger [20] = assay: Antifungal activity against Aspergillus niger ATCC 16404 at 128 ug/ml by broth dilution method; type: functional, organism-based
Candida tropicalis [21] = assay: Antifungal activity against Candida tropicalis ATCC 750 at 128 ug/ml by broth dilution method; type: functional, organism-based
Cryptococcus neoformans [22] = assay: Antifungal activity against Cryptococcus neoformans ATCC 34664 at 16 ug/ml by broth dilution method; type: functional, organism-based
Aspergillus fumigatus [23] = assay: Antifungal activity against Aspergillus fumigatus ATCC 46645 at 16 ug/ml by broth dilution method; type: functional, organism-based
Fusarium proliferatum [24] = assay: Antifungal activity against Fusarium proliferatum ATCC 10052 at 16 ug/ml by broth dilution method; type: functional, organism-based
Aspergillus niger [25] = assay: Antifungal activity against Aspergillus niger ATCC 16404 at 16 ug/ml by broth dilution method; type: functional, organism-based
Pichia kudriavzevii [26] = assay: Antifungal activity against Candida krusei ATCC 6258 by broth dilution method; type: functional
Cryptococcus neoformans [27] = assay: Antifungal activity against Cryptococcus neoformans ATCC 34664 at 8 ug/ml by broth dilution method; type: functional, organism-based
Pichia kudriavzevii [28] = assay: Antifungal activity against Candida krusei ATCC 6258 at 8 ug/ml by broth dilution method; type: functional, organism-based

O=C1O/C(=C\c2ccc(OCC(O)(Cn3cncn3)c3ccc(F)cc3F)cc2)C(c2ccc(F)cc2F)=C1c1ccc(Cl)c(Cl)c1 (racemic)
Activity (Pichia kudriavzevii [1]): inactive
Activity (Aspergillus niger [2]): inactive
Activity (Aspergillus fumigatus [3]): inactive
Activity (Fusarium proliferatum [4]): inactive
Activity (Nakaseomyces glabratus [5]): inactive
Activity (Cryptococcus neoformans [6]): inactive
Activity (Candida albicans [7]): inactive
Activity (Candida tropicalis [8]): inactive

COc1cc(C2=C(c3ccc(F)cc3)COC2=O)ccc1OCC(O)(Cn1cncn1)c1ccc(F)cc1F (racemic)
Activity (Aspergillus niger [9]): inactive
MIC50 (Nakaseomyces glabratus [10]): 0.5 mg/L (≈ 0.93 µM)
MIC50 (Candida tropicalis [11]): 2 mg/L (≈ 3.72 µM)
Activity (Aspergillus fumigatus [12]): inactive
MIC50 (Cryptococcus neoformans [13]): 2 mg/L (≈ 3.72 µM)
Activity (Pichia kudriavzevii [14]): inactive
MIC50 (Candida albicans [15]): 0.5 mg/L (≈ 0.93 µM)
Activity (Fusarium proliferatum [16]): inactive

COc1ccc(C=O)cc1OCC(O)(Cn1cncn1)c1ccc(F)cc1F (racemic)
Activity (Fusarium proliferatum [17]): inactive
MIC50 (Nakaseomyces glabratus [10]): 2 mg/L (≈ 5.14 µM)
Activity (Aspergillus fumigatus [18]): inactive
Activity (Pichia kudriavzevii [19]): inactive
Activity (Aspergillus niger [20]): inactive
Activity (Candida tropicalis [21]): inactive
MIC50 (Cryptococcus neoformans [13]): 16 mg/L (≈ 41.1 µM)
MIC50 (Candida albicans [15]): 2 mg/L (≈ 5.14 µM)

CC1(O)OC(=O)C(c2ccc(OCC(O)(Cn3cncn3)c3ccc(F)cc3F)cc2)=C1c1ccc(F)cc1F (racemic)
MIC50 (Nakaseomyces glabratus [10]): 2 mg/L (≈ 3.6 µM)
Activity (Cryptococcus neoformans [22]): inactive
Activity (Aspergillus fumigatus [23]): inactive
MIC50 (Candida tropicalis [11]): 8 mg/L (≈ 14.4 µM)
Activity (Fusarium proliferatum [24]): inactive
Activity (Pichia kudriavzevii [14]): inactive
MIC50 (Candida albicans [15]): 2 mg/L (≈ 3.6 µM)
Activity (Aspergillus niger [25]): inactive

O=C1OCC(c2ccc(F)cc2)=C1c1ccc(OCC(O)(Cn2cncn2)c2ccc(F)cc2F)cc1 (racemic)
Activity (Aspergillus niger [9]): inactive
MIC50 (Nakaseomyces glabratus [10]): 0.5 mg/L (≈ 0.985 µM)
MIC50 (Candida tropicalis [11]): 1 mg/L (≈ 1.97 µM)
Activity (Aspergillus fumigatus [12]): inactive
MIC50 (Cryptococcus neoformans [13]): 1 mg/L (≈ 1.97 µM)
MIC50 (Candida albicans [15]): 0.25 mg/L (≈ 0.493 µM)
Activity (Fusarium proliferatum [16]): inactive
MIC50 (Pichia kudriavzevii [26]): 8 mg/L (≈ 15.8 µM)

O=C1OCC(c2cccs2)=C1c1ccc(OCC(O)(Cn2cncn2)c2ccc(F)cc2F)cc1 (racemic)
Activity (Aspergillus niger [9]): inactive
MIC50 (Nakaseomyces glabratus [10]): 0.5 mg/L (≈ 1.01 µM)
Activity (Cryptococcus neoformans [27]): inactive
MIC50 (Candida tropicalis [11]): 2 mg/L (≈ 4.04 µM)
Activity (Aspergillus fumigatus [12]): inactive
MIC50 (Candida albicans [15]): 0.5 mg/L (≈ 1.01 µM)
Activity (Fusarium proliferatum [16]): inactive
Activity (Pichia kudriavzevii [28]): inactive

COc1cc(C=O)cc(OC)c1OCC(O)(Cn1cncn1)c1ccc(F)cc1F (racemic)
Activity (Fusarium proliferatum [17]): inactive
MIC50 (Nakaseomyces glabratus [10]): 1 mg/L (≈ 2.38 µM)
Activity (Aspergillus fumigatus [18]): inactive
Activity (Pichia kudriavzevii [19]): inactive
Activity (Aspergillus niger [20]): inactive
MIC50 (Candida tropicalis [11]): 64 mg/L (≈ 153 µM)
MIC50 (Cryptococcus neoformans [13]): 8 mg/L (≈ 19.1 µM)
MIC50 (Candida albicans [15]): 1 mg/L (≈ 2.38 µM)

O=C1OCC(c2ccc(F)cc2F)=C1c1ccc(OCC(O)(Cn2cncn2)c2ccc(F)cc2F)cc1 (racemic)
Activity (Aspergillus niger [9]): inactive
MIC50 (Nakaseomyces glabratus [10]): 0.5 mg/L (≈ 0.952 µM)
MIC50 (Candida tropicalis [11]): 2 mg/L (≈ 3.81 µM)
Activity (Aspergillus fumigatus [12]): inactive
MIC50 (Cryptococcus neoformans [13]): 2 mg/L (≈ 3.81 µM)
MIC50 (Candida albicans [15]): 0.5 mg/L (≈ 0.952 µM)
Activity (Fusarium proliferatum [16]): inactive
MIC50 (Pichia kudriavzevii [26]): 8 mg/L (≈ 15.2 µM)

O=C1OC(c2ccccc2)=N/C1=C\c1ccc(OCC(O)(Cn2cncn2)c2ccc(F)cc2F)cc1 (racemic)
Activity (Pichia kudriavzevii [1]): inactive
MIC50 (Nakaseomyces glabratus [10]): 4 mg/L (≈ 7.96 µM)
Activity (Aspergillus niger [2]): inactive
Activity (Aspergillus fumigatus [3]): inactive
Activity (Fusarium proliferatum [4]): inactive
MIC50 (Candida albicans [15]): 4 mg/L (≈ 7.96 µM)
Activity (Cryptococcus neoformans [6]): inactive
Activity (Candida tropicalis [8]): inactive

CC1OC(=O)C(c2ccc(OCC(O)(Cn3cncn3)c3ccc(F)cc3F)cc2)=C1c1ccc(F)cc1F (racemic)
Activity (Aspergillus niger [9]): inactive
MIC50 (Nakaseomyces glabratus [10]): 1 mg/L (≈ 1.85 µM)
MIC50 (Candida tropicalis [11]): 8 mg/L (≈ 14.8 µM)
Activity (Aspergillus fumigatus [12]): inactive
MIC50 (Cryptococcus neoformans [13]): 4 mg/L (≈ 7.41 µM)
MIC50 (Candida albicans [15]): 1 mg/L (≈ 1.85 µM)
Activity (Pichia kudriavzevii [28]): inactive

COc1ccc(C2=C(c3ccc(OCC(O)(Cn4cncn4)c4ccc(F)cc4F)cc3)C(=O)OC2)cc1 (racemic)
Activity (Aspergillus niger [9]): inactive
MIC50 (Nakaseomyces glabratus [10]): 1 mg/L (≈ 1.92 µM)
MIC50 (Candida tropicalis [11]): 4 mg/L (≈ 7.7 µM)
Activity (Aspergillus fumigatus [12]): inactive
MIC50 (Cryptococcus neoformans [13]): 2 mg/L (≈ 3.85 µM)
MIC50 (Candida albicans [15]): 1 mg/L (≈ 1.92 µM)
Activity (Fusarium proliferatum [16]): inactive
Activity (Pichia kudriavzevii [28]): inactive

COc1cc(C2=C(c3ccc(Br)cc3)COC2=O)ccc1OCC(O)(Cn1cncn1)c1ccc(F)cc1F (racemic)
Activity (Pichia kudriavzevii [1]): inactive
MIC50 (Nakaseomyces glabratus [10]): 2 mg/L (≈ 3.34 µM)
Activity (Aspergillus niger [2]): inactive
Activity (Aspergillus fumigatus [3]): inactive
MIC50 (Candida tropicalis [11]): 4 mg/L (≈ 6.68 µM)
MIC50 (Cryptococcus neoformans [13]): 8 mg/L (≈ 13.4 µM)
Activity (Fusarium proliferatum [4]): inactive
MIC50 (Candida albicans [15]): 1 mg/L (≈ 1.67 µM)
